Tested on: Transport facilitation protein genes
Assay: DNA chip mRNA expression in yeast, transport facilitation protein genes (Table 5)
Type: cell-based, Saccharomyces cerevisiae S288C
Outline: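 Values are treated/untreated fluorescence ratios from a whole-genome yeast DNA chip hybridized over 12 hours at 65° C with Cy3- or Cy5-labelled cDNA from poly(A) mRNA. Log-phase S288C yeast in YPD at 25° C had received a single toxic chemical for two hours, dosed to slow growth without killing.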

Measured: The level of expressed mRNA in the presence of chemical substance/The level of expressed mRNA in the absence of chemical substance

O=[N+]([O-])c1cc[n+]([O-])c2ccccc12 [(5), 4-nitroquinolin-N-oxide]
1.2: yeast gene YCL038C | yeast gene YEL063C | yeast gene YFL041W | yeast gene YGL167C | yeast gene YGR065C | yeast gene YGR096W | yeast gene YHL047C | yeast gene YIL056W | yeast gene YJL034W | yeast gene YJL212C | yeast gene YJL219W | yeast gene YOL156W | yeast gene YPR192W
0.9: yeast gene YCL025C | yeast gene YCR024C-A | yeast gene YDL210W | yeast gene YDR038C | yeast gene YDR387C | yeast gene YGR082W | yeast gene YHL035C | yeast gene YHR175W | yeast gene YJR077C | yeast gene YJR106W | yeast gene YLL028W | yeast gene YLR348C | yeast gene YMR011W | yeast gene YMR162C | yeast gene YNL055C | yeast gene YOL163W | yeast gene YOR332W | yeast gene YOR348C
0.7: yeast gene YBL030C | yeast gene YDL198C | yeast gene YDR497C | yeast gene YGR197C
2.0: yeast gene YPR124W
1.3: yeast gene YCR037C | yeast gene YDL245C | yeast gene YDR039C | yeast gene YDR298C | yeast gene YDR343C | yeast gene YDR345C | yeast gene YFL011W | yeast gene YFL054C | yeast gene YGR055W | yeast gene YKR067W | yeast gene YPL036W | yeast gene YPR194C
1.1: yeast gene YHL040C | yeast gene YHR026W | yeast gene YHR094C | yeast gene YNL259C | yeast gene YOR273C
1.7: yeast gene YBR207W
0.8: yeast gene YBR132C | yeast gene YBR293W | yeast gene YBR295W | yeast gene YGL008C | yeast gene YGR138C | yeast gene YGR191W | yeast gene YGR260W | yeast gene YIL006W | yeast gene YIL022W | yeast gene YJR121W | yeast gene YOR270C
1.4: yeast gene YBR052C | yeast gene YBR068C | yeast gene YBR127C | yeast gene YBR294W | yeast gene YBR298C | yeast gene YCR098C | yeast gene YEL065W | yeast gene YGL255W | yeast gene YGR224W | yeast gene YHR092C | yeast gene YPL134C | yeast gene YPL271W
1.8: yeast gene YOR130C
0.6: yeast gene YER053C | yeast gene YGR281W | yeast gene YMR203W
1.0: yeast gene YBL099W | yeast gene YDL128W | yeast gene YDR086C | yeast gene YDR270W | yeast gene YEL027W | yeast gene YFL050C | yeast gene YGL006W | yeast gene YGL104C | yeast gene YKL146W | yeast gene YKR039W | yeast gene YLR081W | yeast gene YLR378C | yeast gene YNR072W | yeast gene YOR035C | yeast gene YOR153W | yeast gene YOR316C | yeast gene YOR328W | yeast gene YPL265W
2.2: yeast gene YLR295C
1.6: yeast gene YDR342C | yeast gene YIL088C
1.5: yeast gene YKL016C | yeast gene YOL119C

Reference: patent US8192962B2, “Processes for detecting toxic substances” (Daikin Industries, Ltd., priority 2001, dated 2012)
